Data as given in PubChem BioAssay (NCI).
“And” between values parts separate entries of the source, which are not always exact repeats. Equal entries are not always repeated.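 Grown in 96-well plates, cells were treated for 48 hours with each compound at five concentrations. Insufficient inhibition: endpoint recorded as highest concentration tested. GI50 is the concentration that inhibits growth by half. At the TGI there is no net growth.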

What was measured:
Test in all cases: NCI anticancer screen, dose series, 48 h
A498 renal = system: A498 renal
CAKI-1 renal = system: CAKI-1 renal
ACHN renal = system: ACHN renal
OVCAR-3 ovarian = system: OVCAR-3 ovarian
OVCAR-5 ovarian = system: OVCAR-5 ovarian
NCI-H226 lung = system: NCI-H226 lung
IGROV1 ovarian = system: IGROV1 ovarian
SR leukemia = system: SR leukemia
MOLT-4 leukemia = system: MOLT-4 leukemia
OVCAR-4 ovarian = system: OVCAR-4 ovarian

SMILES | GI50 (A498 renal) [µM] | TGI (A498 renal) [µM] | GI50 (CAKI-1 renal) [µM] | TGI (CAKI-1 renal) | GI50 (ACHN renal) [µM] | TGI (ACHN renal) | GI50 (OVCAR-3 ovarian) [µM] | TGI (OVCAR-3 ovarian) | GI50 (OVCAR-5 ovarian) [µM] | TGI (OVCAR-5 ovarian) | GI50 (NCI-H226 lung) [µM] | TGI (NCI-H226 lung) [µM] | GI50 (IGROV1 ovarian) [µM] | TGI (IGROV1 ovarian) | TGI (SR leukemia) | TGI (MOLT-4 leukemia) | TGI (OVCAR-4 ovarian) | GI50 (SR leukemia) [µM] | GI50 (OVCAR-4 ovarian) [µM] | GI50 (MOLT-4 leukemia) [µM]
CC1=C(C(=O)Nc2ccc(F)c(Cl)c2)C(c2ccc(Cl)cc2)NC(=O)N1 (centres undefined) | 13.9 | 29 | 21 | 71.2 µM | 22 | 63 µM | 17.8 | 38.4 µM | 19.5 | 42.9 µM | 15.5 | 38.6 | 12.6 | 31.9 µM |  |  |  |  |  | 
O=C(N/C(=C\c1cc(Cl)ccc1Cl)c1nc2[nH]c(=S)[nH]c(=O)c2[nH]1)c1ccccc1 |  | > 100 |  | > 100 µM |  | > 100 µM |  | > 100 µM |  | > 100 µM |  | > 100 |  | > 70.6 µM | > 100 µM | > 80.8 µM | > 100 µM |  |  | 
CSc1ccc(/C=C2\CN(C)C/C(=C\c3ccc(SC)cc3)C2=O)cc1 |  | > 100 |  | > 100 µM |  | > 100 µM |  | 56 µM |  | > 100 µM |  | > 100 |  | > 100 µM | 41.4 µM | > 100 µM | > 100 µM |  |  | 
CCc1ccc2c(c1)C(=O)c1c-2n(CCCBr)c(=O)c2cc([N+](=O)[O-])ccc12 | > 50 | > 50 | > 50 | > 50 µM | > 50 | > 50 µM | > 50 | > 50 µM | > 50 | > 50 µM | 27.7 | > 50 | 27.9 | > 50 µM | > 50 µM |  | > 50 µM | 19.1 | 48.1 | 
CC(C)c1ccc(C(C)C(=O)N(CC2=C(C(C)c3ccccn3)c3ccccc3C2)C(C)C)cc1 (centres undefined) | 0.801 | 5.59 | 1.76 | 6.73 µM | 3.22 | > 100 µM | 3.26 | 11.6 µM | 5.33 | 95.9 µM | 2.68 | 21.7 | 2.77 | 31.3 µM | 9.58 µM | 13.1 µM | 86.7 µM | 2.67 | 3.07 | 2.46
CCOC(=O)c1ncn2c1[nH]c(=S)c1ccccc12 |  | > 100 |  | > 100 µM |  | > 100 µM |  | > 100 µM |  | > 100 µM |  | > 100 |  | > 100 µM |  | > 100 µM | > 100 µM |  |  | 
CSCCCN(CCCSC)CCCSC |  |  |  |  |  |  |  | > 100 µM |  | > 100 µM |  |  |  | > 100 µM | 58.8 µM | > 100 µM | > 100 µM |  |  | 
Clc1cccc(Cc2cn3cc(-c4ccccc4)nc3s2)c1Cl |  |  | > 100 | > 100 µM | 30.2 | > 100 µM | 37.9 | > 100 µM | > 100 | > 100 µM | 27.3 | > 100 | 31.4 | > 100 µM |  | > 100 µM | 55.2 µM |  | 3.85 | > 100
Fc1ccc(Nc2ncnc3ccc(-c4cnc5[nH]ccc5c4)cc23)cc1Cl |  |  | 0.502 | 19.5 µM | 0.602 | 2.49 µM | 1.51 | 3.73 µM | 2.13 | 10.6 µM | 1.99 | 4.97 | 0.45 | 3.41 µM | > 100 µM | > 100 µM | 3.92 µM | 2.68 | 1.51 | > 20.8
CC1=C(C#N)C23C(=O)c4ccccc4C(O)=C2C(=O)C=CC3(O)N1Cc1ccccc1 (centres undefined) | > 100 | > 100 | 43.2 | > 100 µM | 29.4 | > 100 µM | 32 | > 100 µM | 30.3 | > 100 µM |  |  | 23.9 | 72.4 µM | > 100 µM |  | > 100 µM | 33.7 | 38.6 | 
N#CC(C#N)=c1ccc(=C2NCC3CCCN23)cc1 (centres undefined) |  | > 100 |  | > 100 µM |  |  |  |  |  | > 100 µM |  | > 100 |  | > 100 µM | > 100 µM | > 100 µM | > 100 µM |  |  | 
COC(=O)[C@@]12C3=NO[C@]1(C(=O)OC)C(O[Si](C)(C)C(C)(C)C)[C@H]1OC(C)(C)O[C@H]1[C@@H]2C(OCc1ccccc1)CC3 (some centres undefined) |  | > 100 |  |  |  | 28 µM |  | > 100 µM |  |  |  | > 100 |  | > 100 µM |  | > 100 µM | 97.2 µM |  |  | 
O=[S@@]1Nc2ccc(Br)cc2S1 |  |  |  | > 100 µM |  | > 100 µM |  | > 100 µM |  |  |  | > 100 |  | > 100 µM | > 100 µM | > 100 µM |  |  |  | 
CN(CC(=O)O)S(=O)(=O)c1ccc2ccccc2c1 |  | > 100 |  | > 100 µM |  | > 100 µM |  | > 100 µM |  | > 100 µM |  |  |  | > 100 µM |  | > 100 µM | > 100 µM |  |  | 
CC(=O)NC1=C(NCC(C)(C)C)C(=O)c2ccccc2C1=O |  |  |  |  |  | 74.5 µM |  | > 100 µM |  |  |  | > 100 |  | > 100 µM | > 100 µM | > 100 µM | > 100 µM |  |  | 
O=C(O)c1cc(C(=O)O)cc(N2C(=O)c3ccccc3C2=O)c1 |  | > 100 |  | > 100 µM |  | > 100 µM |  | > 100 µM |  | > 100 µM |  | > 100 |  | > 100 µM | > 100 µM |  | > 100 µM |  |  | 
O=C1NNC(=O)c2ccccc2SSc2ccccc2C(=O)NNC(=O)c2ccccc2SSc2ccccc21 |  |  | 18.1 | 50 µM and > 100 µM | 7.34 | 50 µM and > 100 µM |  | 50 µM and > 100 µM |  | 50 µM and 73.8 µM |  | > 50 | 6.66 | 50 µM and > 100 µM | 50 µM and 32.7 µM | 50 µM and 17.3 µM | 50 µM and > 100 µM | 3.79 |  | 
CC(C)=CCCc1c(C)ccc2c1C(=O)C(=O)C(C(C)C)=C2 |  | > 22 |  | 7.79 µM |  | 6.84 µM |  | 7.36 µM |  |  |  | > 22 |  | > 22 µM | 14.9 µM | 20 µM | 8.81 µM |  |  | 
CCN(CC)CC(C(=O)Nc1c(C)cccc1C)/C(C)=N\NC(=O)C[N+](C)(C)C (centres undefined) |  |  |  | > 100 µM |  | > 100 µM |  | > 100 µM |  | > 100 µM |  | > 100 |  | > 100 µM | > 100 µM | > 100 µM | > 100 µM |  |  | 
